Measured values reported in PubChem BioAssay (NCI).
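Each compound was tested at five concentrations against cells in 96-well plates for 48 hours. Here, GI50 denotes the concentration required for 50% inhibition of growth. TGI marks complete inhibition of growth.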

Legend:
Assay in all cases: growth of human tumour cells (NCI), 48 h
[1] = test system: COLO 205 colon
[2] = test system: DLD-1 colon
[3] = test system: DMS 114 small cell lung
[4] = test system: LOX IMVI melanoma
[5] = test system: NCI-H23 lung
[6] = test system: OVCAR-4 ovarian
[7] = test system: NCI-H522 lung
[8] = test system: UACC-257 melanoma
[9] = test system: MDA-MB-231 breast
[10] = test system: NCI/ADR-RES ovarian

Row | Compound | TGI [1] | TGI [2] | TGI [3] | TGI [4] | TGI [5] | TGI [6] | TGI [7] | TGI [8] | GI50 [1] | GI50 [4] | GI50 [9] | TGI [9] | GI50 [5] | GI50 [7] | GI50 [10] | TGI [10] | GI50 [6] | GI50 [8]
1 | NCCOCn1cc(Cc2cccc(OCc3ccccc3)c2)c(=O)[nH]c1=O | > 100 µM | > 100 µM | > 100 µM | > 100 µM | > 100 µM | > 100 µM | – | – | – | – | – | – | – | – | – | – | – | –
2 | O=C1OC(c2ccccc2)(c2ccccc2)c2ccc3ccc(F)cc3c21 | > 100 µM | > 100 µM | > 100 µM | > 100 µM | > 100 µM | > 100 µM | > 100 µM | > 100 µM | – | – | – | – | – | – | – | – | – | –
3 | Nc1ncnc2c1c(-c1ccc(Oc3ccccc3)cc1)nn2C[C@H]1SSC[C@@H]1O | 9.82 µM | – | – | 1.79 µM | 21.4 µM | 19.8 µM | 14 µM | 16.1 µM | 2.06 µM | 0.257 µM | 0.934 µM | 7.84 µM | 0.83 µM | 3.85 µM | 2.73 µM | 37.1 µM | 1.44 µM | 0.374 µM
4 | CCn1c(-c2c(Cl)cc(O)cc2Cl)cc2c(Cl)cc(O)cc21 | 36.8 µM | – | – | 32.8 µM | 39 µM | 21.7 µM | 6.68 µM | 26 µM | – | – | – | 31 µM | – | – | – | > 100 µM | – | –
5 | Nc1ncn(C2OC(COP(=O)(O)O)C(O)C2O)c(=O)n1 (stereo unspecified) | > 100 µM | – | – | > 100 µM | > 100 µM | > 100 µM | > 100 µM | > 100 µM | – | – | – | > 100 µM | – | – | – | > 100 µM | – | –
6 | O=C1C=CC(=O)C2C1Cc1ccccc1C2c1ccccc1 (stereo unspecified) | 35.5 µM | > 100 µM | 42.3 µM | > 100 µM | > 100 µM | 46 µM | 35.2 µM | 70.2 µM | – | – | – | – | – | – | – | – | – | –
7 | CCN(CC)CCC(=O)OC1C(C)=CC(C)C(=O)CC(C(C)CC2CCC(O)C(OC)C2)OC(=O)C2CCCCN2C(=O)C(=O)[C@@]2(O)OC(CCC2C)CC(OC)\C(C)=C/C=C/C=C/C(C)CC(C)C(=O)C1OC (stereo partly specified) | 24.6 µM | – | – | 19.2 µM | 26.4 µM | 2.27 µM | 26.5 µM | 27.1 µM | – | – | – | 26.7 µM | – | – | – | 25.8 µM | – | –
8 | Cc1ccc(-c2c(C#N)[n+](=O)c3cc(F)c(F)cc3n2[O-])cc1 | 38.6 µM | – | – | > 100 µM | 6.47 µM | 41.2 µM | 76.9 µM | 48.7 µM | 19.5 µM | > 100 µM | 1.81 µM | 3.98 µM | 2.33 µM | 3.43 µM | 2.83 µM | 9.2 µM | 21.4 µM | 23.5 µM
9 | O=S(=O)(c1ccccc1)c1nccs1 | > 100 µM | > 100 µM | > 100 µM | > 100 µM | > 100 µM | > 100 µM | > 100 µM | > 100 µM | – | – | – | – | – | – | – | – | – | –
10 | O=C1NC(O)c2ccccc2O1 (stereo unspecified) | > 100 µM | – | – | > 100 µM | > 100 µM | > 100 µM | > 100 µM | > 100 µM | – | – | – | > 100 µM | – | – | – | > 100 µM | – | –
11 | C=C1C(=O)O[C@H]2[C@H]1CC/C(Cn1cc(Cc3c[nH]c4ccccc34)nn1)=C\CC[C@@]1(C)O[C@@H]21 | 3.75 µM | – | – | 3.03 µM | 4.56 µM | 5.61 µM | 3 µM | 4.45 µM | 1.83 µM | 1.55 µM | 1.72 µM | 3.48 µM | 2.02 µM | 1.43 µM | 6.22 µM | 21.9 µM | 2.05 µM | 2.11 µM
12 | CCCCC[C@H]1CC=C2C(=O)C=C[C@@H]2CC=CCCCC(=O)O[C@@H](CCCCC)CC=C2C(=O)C=C[C@@H]2CC=CCCCC(=O)O[C@@H](CCCCC)CC=C2C(=O)C=C[C@@H]2CC=CCCCC(=O)O1 | 0.368 µM | – | – | 0.306 µM | 1.93 µM | > 8.75 µM | 0.797 µM | 2.2 µM | 0.169 µM | 0.15 µM | 0.249 µM | 0.697 µM | 0.3 µM | 0.218 µM | 4.24 µM | > 8.75 µM | 0.317 µM | 0.456 µM
13 | CC/C=C\C[C@H](O)C/C=C1/C(=O)C=C[C@@H]1C/C=C\CCCC(=O)OC(C)C | 3.87 µM | – | – | 0.41 µM | 4.37 µM | 14.4 µM | 2.88 µM | 5.49 µM | 1.79 µM | 0.18 µM | 3.17 µM | 9.77 µM | 1.73 µM | 1.25 µM | 3.11 µM | 17.2 µM | 2.92 µM | 2.16 µM
14 | C=C(C)[C@@H]1C/C=C(/CO)CC[C@H]2O[C@]2(C)CC/C=C(\C)CC1 | 26.7 µM | – | – | 30.3 µM | 66.9 µM | 34.1 µM | 32.1 µM | 43.6 µM | 13.2 µM | 15.4 µM | 10.7 µM | 29.7 µM | 20.7 µM | 16.1 µM | 29.9 µM | > 100 µM | 16.3 µM | 22 µM
15 | Oc1[nH]c(N=C2N=c3ccccc3=N2)c2ccccc12 | 20.5 µM | – | – | 24.9 µM | 52.6 µM | 24 µM | 41.6 µM | > 100 µM | 6.39 µM | 4.78 µM | 15.2 µM | 46.2 µM | 7.29 µM | 11.2 µM | 3.87 µM | 30.1 µM | 6.84 µM | 13.7 µM
16 | COc1cc2c3c(n(CCCCNC(=O)OC(C)(C)C)c(=O)c2cc1OC)-c1cc2c(cc1C3=O)OCO2 | > 100 µM | – | – | > 100 µM | > 100 µM | > 100 µM | > 100 µM | > 100 µM | > 100 µM | > 100 µM | > 100 µM | > 100 µM | > 100 µM | > 100 µM | > 100 µM | > 100 µM | > 100 µM | > 100 µM
17 | COc1cccc(Sc2ccc([N+](=O)[O-])c3no[n+]([O-])c23)c1 | 7.31 µM | – | – | 11.5 µM | 25 µM | 27 µM | 3.93 µM | 29.9 µM | 2.49 µM | 3.38 µM | 11.2 µM | 28 µM | 7.14 µM | 1.98 µM | 5.97 µM | 19.1 µM | 10.1 µM | 14 µM
